{"source": "paper PMC12876990", "about": "“Targeting secreted PLA2 interactions with EGFR and vimentin to arrest prostate tumour growth” (Cell Death & Disease, 2025)", "key": {"[1]": {"assay": "Pharmacokinetics of tritiated cF and c2 in BALB/c mice", "assay_type": "in vivo", "protocol": "All animal studies were performed according to the guidelines for the ethical use of animals published by the National Health and Medical Research Council of Australia. Mouse pharmacokinetic studies were conducted with approval from the Garvan Institute Animal Ethics Committee (approval #02/21). cF and c2 were radioactively labelled with tritium by catalytic saturation of peptide analogues containing dehydroleucine (Sibtech Inc.), yielding high specific activity (50–60 Ci/mmol) peptides. Their identity was confirmed by three separate analytical methods prior to delivery. Mice (BALB/c, n = 4 per timepoint) were administered a single dose of peptide by the routes and times indicated. Animals were then exsanguinated by cardiac puncture under halothane anaesthesia followed by cervical dislocation. Tissues and plasma were stored at −80 °C prior to analysis. For plasma, a known volume of plasma was added to liquid scintillant (Ultima Gold, Perkin Elmer). For tissues, a known amount of tissue (50–100 mg) was incubated in NaOH (1 mL, 1 M) overnight at room temperature. The solutions were then bleached with disodium EDTA (100 µl, 0.1%) and hydrogen peroxide (300 µl, 30%) and incubated at 50 °C for one hour. The peptide content of plasma and tissues was determined by liquid scintillation counting. The stability of the peptides following administration to animals was evaluated by thin-layer chromatography of tissue-extracted peptide relative to peptide prior to injection (Fig. S2c)."}, "[2]": {"assay": "28-day oral toxicity study: daily clinical observations", "assay_type": "in vivo, male Sprague Dawley rats", "parameters": "key to Clinical observations: NC A, no clinical abnormalities", "protocol": "3.6. Procedure for test item administration […]\nintragastric cannula attached to a 3 mL syringe.\n3.7. Observation of animals […]\ngroups: Day 29; recovery groups: Day 43).\n(Appendix C Study Data Spreadsheets). […]\nreport (Appendix C Study Data Spreadsheets).\n3.7.3. Clinical observations […]\ngroups and on the day of sa crifice. […]\nand abnormal behaviour. Skin and fur, eyes and mucous membranes, respiratory, […]\npatterns were monitored. Particular attention was paid to observation of tremor, convulsion, salivation, diarrhoea, lethargy, sleep and coma.\n3.7.4. Detailed clinical examinations […]\nthe report (Appendix C Study Data Spreadsheets). […]"}, "[3]": {"assay": "28-day oral toxicity study: histopathology", "assay_type": "in vivo, male Sprague Dawley rats", "settings": "Gr 3, 20 mg/kg vs Gr 1", "protocol": "organs. Tissues and carcas ses were placed in 10% formalin. The tissues to be processed for histopathological examinations were fixed for at least 48 hours prior to cassette preparation.\nThe organ weights and gross pathology changes a re included in a spreadsheet as an appendix to the report (Appendix C Study Data Spreadsheets).\n3.12. Tissue proces sing / Slide preparation\nThe tissues were placed in labelled cassette s and placed in an automated tissue processor and taken through several stages of alcohol dehydration, solvent clearing and wax infiltration.\nInfiltrated tissues were embedded in wax blo ck s, which were sectioned on a microtome at between 4 and 6 µm. Sections were placed on pre-labelled glass slides and stained with haematoxylin and eo sin (H&E). Stained section s were dehydrated, then solvent cl eared and […]\nHistopathological examinations were p erformed on all animals in the vehicle control and high dose treated groups (main study) on the following tissues/organs: adrenal glands, bone marrow, brain, epididymis, heart, kidney, liver, lung, lymph node: mesenteric, prostate, seminal v esicle s with coagulating glands, small and l arge intesti ne (including Peyer’s patches), spinal cord, spleen, stomach, thymus, thyroid gland, trachea, testes and urinary bladder. Slides were evaluated for histology change s under light microscopy at a magnification of 100 to 1000 times.\nIndividual histopathology results and a summar y are attached a s an app endix to the report (Appendix E Histopathology).\n3.14. Statistical analyses\nClinical observations, detailed clinical observations, functional observations, blood and urine analyses and histopathology were summarised by descriptive analysis.\nStatistical analyses, consisting of unpaired t-tests, were performed on measured variables: percentage body weight gain s, food consumption and organ weights as a percentage of body weight. A significance level of P < 0.05 was used for all tests.\nSt Geo rge C lini c al S chool"}, "[4]": {"assay": "28-day oral toxicity study: urinalysis", "assay_type": "in vivo, male Sprague Dawley rats", "description": "Haematology and Biochemistry).\nUrine was collected at the end of the study (on Days 29 and 43 for main and recovery groups, respectively) by placing a urine collection tube at the opening of the urethra and any urine expressed by the animal wa s collected. If no urine came out, pressure was gently applied on the bladder area of the abdomen.\nUrine was also collected by bladder puncture at the time of death to maximise the volume collected. The animal was placed in lateral recumbency and the abdominal cavity opened. A needle attached to the syringe w as in serted int o the bladder and urine withdrawn with the plunger. The urine sample was expelled from the syringe into the collection tube.\nThe urine samples were an alysed, individual re su lts are pres ented a s an appendix to the report (Appendix C Study Data Spreadsheets). […]"}, "[5]": {"settings": "rat, in vivo, 20 mg/kg", "quoted_text": "The calculated volumetric do se wa s administered to each rat orally by gav age, using a plastic\nTwo dose level s of 1 and 20 mg/kg of the te st it em susp ension were administered to each rat\nevery 3 days (total 10 do ses) for 28 days. This c orresponded to volumetric dose of 10.09 and\n10.23 mL/kg. The volumetric dose administered to each animal was calculated on Days 1, 8, 15\nFeed consumption was monitored weekly over the 28-day experimental period in all groups\nand was continued for a further 2 weeks in the recovery groups (42-day experimental\nperiod). Feed intake was monitored by providing a known mass of feed to each cage and\nsubtracting the mas s remaining at the end of th e weekly period. Animals were fa sted\novernight on either Day 28 (main groups) or Day 42 (recovery groups)."}, "[6]": {"settings": "Day 43, Gr 5 recovery, 20 mg/kg"}}, "note": "Square brackets hold non-standard residues; d marks the D form. Peptide text beside a SMILES is read from it. 2Nal = N[C@@H](Cc1ccc2ccccc2c1)C(=O)O"}
{"smiles": "CC(C)C[C@@H]1NC(=O)[C@H](Cc2ccc3ccccc3c2)NC(=O)[C@H](CCCNC(=N)N)NC(=O)[C@H](Cc2ccc3ccccc3c2)NC(=O)[C@H](CO)NC1=O", "note": "[c2, cyclo-((2-Nal)-Leu-Ser-(2-Nal)-Arg)] (cyclo([2Nal]LS[2Nal]R))", "values": [{"measurement": "oral bioavailability (in words)", "setting": "[1]; sc and po administration", "result": "orally bioavailable"}, {"measurement": "oral bioavailability relative to sc delivery (AUC analysis)", "setting": "[1]; tritiated peptide 5 mg/kg, po vs sc, at 16 hours", "result": "~ 10%"}, {"measurement": "clinical signs", "setting": "[2]; 1 and 20 mg/kg", "result": "did not have an adverse effect"}, {"measurement": "Clinical observations", "setting": "[2]; Day 1-7, Gr 2, 1 mg/kg", "result": "NC A"}, {"measurement": "Clinical observations", "setting": "[2]; Day 1-7, Gr 3, 20 mg/kg", "result": "NC A"}, {"measurement": "Clinical observations", "setting": "[2]; Day 1-7, Gr 5 recovery, 20 mg/kg", "result": "NC A"}, {"measurement": "Clinical observations", "setting": "[2]; Day 8-14, Gr 2, 1 mg/kg", "result": "NC A"}, {"measurement": "Clinical observations", "setting": "[2]; Day 8-14, Gr 3, 20 mg/kg", "result": "NC A"}, {"measurement": "Clinical observations", "setting": "[2]; Day 8-14, Gr 5 recovery, 20 mg/kg", "result": "NC A"}, {"measurement": "Clinical observations", "setting": "[2]; Day 15-21, Gr 2, 1 mg/kg", "result": "NC A"}, {"measurement": "Clinical observations", "setting": "[2]; Day 15-21, Gr 3, 20 mg/kg", "result": "NC A"}, {"measurement": "Clinical observations", "setting": "[2]; Day 15-21, Gr 5 recovery, 20 mg/kg", "result": "NC A"}, {"measurement": "Clinical observations", "setting": "[2]; Day 22-28, Gr 2, 1 mg/kg", "result": "NC A"}, {"measurement": "Clinical observations", "setting": "[2]; Day 22-28, Gr 3, 20 mg/kg", "result": "NC A"}, {"measurement": "Clinical observations", "setting": "[2]; Day 22-28, Gr 5 recovery, 20 mg/kg", "result": "NC A"}, {"measurement": "Clinical observations", "setting": "[2]; Day 29-35, Gr 5 recovery, 20 mg/kg", "result": "NC A"}, {"measurement": "Clinical observations", "setting": "[2]; Day 36-43, Gr 5 recovery, 20 mg/kg", "result": "NC A"}, {"measurement": "histopathology: large intestine: colon", "setting": "[3]", "result": "No treatment-related differences"}, {"measurement": "histopathology: liver", "setting": "[3]", "result": "No treatment-related differences"}, {"measurement": "histopathology: small intestine: ileum", "setting": "[3]", "result": "No treatment-related differences"}, {"measurement": "histopathology: stomach", "setting": "[3]", "result": "No treatment-related differences"}, {"measurement": "Urine bilirubin: animals Negative", "setting": "[4]; Day 29, Gr 2, 1 mg/kg", "result": "8/8"}, {"measurement": "Urine blood: animals Negative", "setting": "[4]; Day 29, Gr 2, 1 mg/kg", "result": "8/8"}, {"measurement": "Urine glucose: animals Negative", "setting": "[4]; Day 29, Gr 2, 1 mg/kg", "result": "8/8"}, {"measurement": "Urine ketone: animals Small", "setting": "[4]; Day 29, Gr 2, 1 mg/kg", "result": "1/8"}, {"measurement": "Urine ketone: animals Trace", "setting": "[4]; Day 29, Gr 2, 1 mg/kg", "result": "5/8"}, {"measurement": "Urine leucocytes: animals Negative", "setting": "[4]; Day 29, Gr 2, 1 mg/kg", "result": "8/8"}, {"measurement": "Urine nitrite: animals Negative", "setting": "[4]; Day 29, Gr 2, 1 mg/kg", "result": "8/8"}, {"measurement": "Urine protein: animals 1+", "setting": "[4]; Day 29, Gr 2, 1 mg/kg", "result": "4/8"}, {"measurement": "Urine protein: animals 2+", "setting": "[4]; Day 29, Gr 2, 1 mg/kg", "result": "2/8"}, {"measurement": "Urine protein: animals Trace", "setting": "[4]; Day 29, Gr 2, 1 mg/kg", "result": "2/8"}, {"measurement": "Urobilinogen: animals Normal", "setting": "[4]; Day 29, Gr 2, 1 mg/kg", "result": "8/8"}, {"measurement": "Urine bilirubin: animals Negative", "setting": "[4]; Day 29, Gr 3, 20 mg/kg", "result": "9/9"}, {"measurement": "Urine blood: animals Negative", "setting": "[4]; Day 29, Gr 3, 20 mg/kg", "result": "9/9"}, {"measurement": "Urine glucose: animals Negative", "setting": "[4]; Day 29, Gr 3, 20 mg/kg", "result": "9/9"}, {"measurement": "Urine ketone: animals Negative", "setting": "[4]; Day 29, Gr 3, 20 mg/kg", "result": "1/9"}, {"measurement": "Urine ketone: animals Small", "setting": "[4]; Day 29, Gr 3, 20 mg/kg", "result": "4/9"}, {"measurement": "Urine ketone: animals Trace", "setting": "[4]; Day 29, Gr 3, 20 mg/kg", "result": "4/9"}, {"measurement": "Urine leucocytes: animals Negative", "setting": "[4]; Day 29, Gr 3, 20 mg/kg", "result": "9/9"}, {"measurement": "Urine nitrite: animals Negative", "setting": "[4]; Day 29, Gr 3, 20 mg/kg", "result": "9/9"}, {"measurement": "Urine protein: animals 1+", "setting": "[4]; Day 29, Gr 3, 20 mg/kg", "result": "7/9"}, {"measurement": "Urine protein: animals 2+", "setting": "[4]; Day 29, Gr 3, 20 mg/kg", "result": "2/9"}, {"measurement": "Urobilinogen: animals Normal", "setting": "[4]; Day 29, Gr 3, 20 mg/kg", "result": "9/9"}, {"measurement": "urine parameters", "setting": "[4]; Day 29 and Day 43", "result": "no obvious effects"}, {"measurement": "Urine bilirubin: animals Negative", "setting": "[4]; [6]", "result": "5/5"}, {"measurement": "Urine blood: animals Negative", "setting": "[4]; [6]", "result": "3/5"}, {"measurement": "Urine blood: animals Small", "setting": "[4]; [6]", "result": "1/5"}, {"measurement": "Urine blood: animals Trace", "setting": "[4]; [6]", "result": "1/5"}, {"measurement": "Urine glucose: animals Negative", "setting": "[4]; [6]", "result": "5/5"}, {"measurement": "Urine ketone: animals Negative", "setting": "[4]; [6]", "result": "2/5"}, {"measurement": "Urine ketone: animals Trace", "setting": "[4]; [6]", "result": "3/5"}, {"measurement": "Urine leucocytes: animals Negative", "setting": "[4]; [6]", "result": "5/5"}, {"measurement": "Urine nitrite: animals Negative", "setting": "[4]; [6]", "result": "5/5"}, {"measurement": "Urine protein: animals 1+", "setting": "[4]; [6]", "result": "2/5"}, {"measurement": "Urine protein: animals 2+", "setting": "[4]; [6]", "result": "1/5"}, {"measurement": "Urine protein: animals Negative", "setting": "[4]; [6]", "result": "2/5"}, {"measurement": "Urobilinogen: animals Normal", "setting": "[4]; [6]", "result": "5/5"}, {"measurement": "Mean feed intake/cage", "setting": "[5]", "result": 5180, "unit": "g"}]}
